Calls of active or inactive are those of the source.
Tests used:
BJ [1] = experiment: cytotoxicity toward BJ-TERT fibroblasts, dose response, cell-based, RAS-independent, luminescence (AID 1933); type: functional; details: Homo sapiens
BJ [2] = experiment: cells; type: functional, cell-based; details: Homo sapiens
BJ [3] = experiment: cytotoxicity toward BJ-TERT-LT-ST fibroblasts, dose response, cell-based, RAS-independent, luminescence (AID 1935); type: functional; details: Homo sapiens;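 also: BJ fibroblasts immortalized with TERT plus LT and ST oncogenes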
Protein RecA = molecular target: T1, Protein RecA (Mycobacterium tuberculosis, UniProt P9WHJ3); experiment: Fluorescence Cell-Free Homogeneous Dose Retest to Identify Inhibitors of RecA-Intein Splicing Activity. [Related pubchem assays (depositor defined):AID2097, AID2223, AID489010, AID492950]; type: functional
T1 sequence (P9WHJ3 whole entry): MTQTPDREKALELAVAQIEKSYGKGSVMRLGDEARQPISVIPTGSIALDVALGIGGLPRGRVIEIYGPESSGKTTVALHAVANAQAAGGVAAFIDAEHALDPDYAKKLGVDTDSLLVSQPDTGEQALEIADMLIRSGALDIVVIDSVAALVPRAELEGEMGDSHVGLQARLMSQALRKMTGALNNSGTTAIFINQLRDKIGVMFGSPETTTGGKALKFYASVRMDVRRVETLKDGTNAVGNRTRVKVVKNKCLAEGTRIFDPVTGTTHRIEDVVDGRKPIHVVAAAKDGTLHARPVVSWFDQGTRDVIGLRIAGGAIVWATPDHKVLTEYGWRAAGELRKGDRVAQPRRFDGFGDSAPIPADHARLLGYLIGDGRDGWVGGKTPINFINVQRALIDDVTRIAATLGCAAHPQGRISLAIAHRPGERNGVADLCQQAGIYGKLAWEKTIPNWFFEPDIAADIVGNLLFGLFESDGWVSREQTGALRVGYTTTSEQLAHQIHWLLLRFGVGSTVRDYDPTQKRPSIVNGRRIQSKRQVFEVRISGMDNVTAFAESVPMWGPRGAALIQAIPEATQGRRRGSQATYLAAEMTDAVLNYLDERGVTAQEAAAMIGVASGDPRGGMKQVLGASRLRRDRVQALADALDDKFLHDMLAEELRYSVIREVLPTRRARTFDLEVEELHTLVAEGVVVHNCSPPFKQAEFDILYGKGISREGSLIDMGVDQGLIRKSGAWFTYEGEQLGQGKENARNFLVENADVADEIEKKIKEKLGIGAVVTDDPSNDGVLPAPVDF

[4] = cytotoxicity toward DRD oncogenic fibroblasts, dose response, cell-based, non-viral oncogenic, luminescence (AID 1934); type: functional; details: Homo sapiens
[5] = molecular target: T2, Microphthalmia-associated transcription factor (Homo sapiens, UniProt O75030); experiment: TRPM1 promoter luciferase signal decrease, dose response, MITF inhibitor project, cell-based, SK-MEL-5, cherry-picked, set 3 (AID 493073); type: functional
T2 sequence (O75030 whole entry): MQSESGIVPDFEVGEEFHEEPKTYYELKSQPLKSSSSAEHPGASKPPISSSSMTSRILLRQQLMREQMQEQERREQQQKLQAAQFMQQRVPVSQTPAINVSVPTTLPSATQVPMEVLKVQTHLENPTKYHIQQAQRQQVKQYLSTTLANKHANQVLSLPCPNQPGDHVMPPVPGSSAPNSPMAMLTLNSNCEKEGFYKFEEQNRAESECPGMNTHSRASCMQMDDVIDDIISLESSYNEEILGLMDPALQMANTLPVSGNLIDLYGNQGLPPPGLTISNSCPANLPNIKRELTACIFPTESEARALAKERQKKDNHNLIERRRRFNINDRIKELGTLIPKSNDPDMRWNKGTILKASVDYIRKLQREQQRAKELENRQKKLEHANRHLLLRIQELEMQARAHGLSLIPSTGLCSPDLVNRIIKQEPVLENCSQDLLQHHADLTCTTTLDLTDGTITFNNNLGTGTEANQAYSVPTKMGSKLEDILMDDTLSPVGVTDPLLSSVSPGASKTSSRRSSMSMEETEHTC

[6] = molecular target: T3, Replicative DNA helicase DnaB (Mycobacterium tuberculosis, UniProt P9WMR3); experiment: DnaB intein splicing inhibitors, dose response, biochemical, cell-free fluorescence (AID 449749); type: functional
T3 sequence (P9WMR3 whole entry): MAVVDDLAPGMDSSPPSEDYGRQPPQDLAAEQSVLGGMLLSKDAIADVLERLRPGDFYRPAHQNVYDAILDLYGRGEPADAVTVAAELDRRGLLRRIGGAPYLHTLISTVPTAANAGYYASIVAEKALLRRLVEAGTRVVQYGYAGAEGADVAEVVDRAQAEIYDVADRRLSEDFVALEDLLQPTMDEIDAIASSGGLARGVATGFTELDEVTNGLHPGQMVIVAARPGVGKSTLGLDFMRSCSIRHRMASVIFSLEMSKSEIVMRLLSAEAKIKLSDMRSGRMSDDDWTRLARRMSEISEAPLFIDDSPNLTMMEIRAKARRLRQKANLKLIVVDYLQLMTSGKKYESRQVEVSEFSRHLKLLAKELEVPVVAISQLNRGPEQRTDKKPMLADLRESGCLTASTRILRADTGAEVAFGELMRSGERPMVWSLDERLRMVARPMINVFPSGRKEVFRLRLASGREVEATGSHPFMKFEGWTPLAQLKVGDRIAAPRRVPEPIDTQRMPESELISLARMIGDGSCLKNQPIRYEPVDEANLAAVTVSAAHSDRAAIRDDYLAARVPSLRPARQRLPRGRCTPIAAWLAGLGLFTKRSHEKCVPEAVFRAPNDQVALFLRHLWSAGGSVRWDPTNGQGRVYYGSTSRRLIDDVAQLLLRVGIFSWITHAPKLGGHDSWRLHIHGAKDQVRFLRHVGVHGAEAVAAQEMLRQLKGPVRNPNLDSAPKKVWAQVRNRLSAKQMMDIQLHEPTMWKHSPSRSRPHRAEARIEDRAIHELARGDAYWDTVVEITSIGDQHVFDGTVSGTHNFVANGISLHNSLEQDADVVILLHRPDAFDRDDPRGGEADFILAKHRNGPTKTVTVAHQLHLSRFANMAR

A-375 [7] = experiment: MITF: Counter assay: A375 proliferation Measured in Cell-Based System Using Plate Reader - 2084-03_Inhibitor_Dose_DryPowder_Activity. [Related pubchem assays (depositor defined):AID488944]; type: functional; details: Homo sapiens
A-375 [8] = experiment: A375 melanoma cell viability reduction, dose response, counter-screen for MITF modulator project, cherry-pick samples, set 2 (AID 540335); type: functional, cell-based; details: Homo sapiens
[9] = inhibitors of clade B AD8 Env fusion, dose response, cell-based, cherry-pick (AID 652062); type: functional;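 also: luciferase signal from cell-cell fusion driven by HIV-1 clade B AD8 Env; potency is for inhibitors of fusion seen as a drop in luminescence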
[10] = ZM109 Env clade C HIV-1 fusion inhibitors, dose response, HeLa effector, CEM target cells, luciferase, cherry-pick (AID 652058); type: functional, cell-based
[11] = inhibitors of HIV Env-driven cell fusion, dose response, cherry-pick (AID 652057); type: functional, cell-based
[12] = off-target signal loss in HeLa-CEM21 co-culture – HeLa F-luc CTL cells, cherry-picked, counter-screen for HIV-1 Env fusion inhibitor project, dose response (AID 652040); type: functional, cell-based;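 also: potency for signal decrease marking cytotoxic or nonspecific inhibition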
[13] = molecular target: Type-1 angiotensin II receptor (Homo sapiens, UniProt P30556); experiment: AT1 receptor antagonists, dose response, selectivity assay for APJ receptor antagonist project, cell-based, uHTS hits (AID 463214); type: functional;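 also: antagonist potency against angiotensin II stimulated AT1 response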
Beta-galactosidase = Beta-galactosidase (Escherichia coli, UniProt Q8VNN2); experiment: PubChem AID 485352; type: functional
[14] = molecular target: Beta-2 adrenergic receptor (Homo sapiens, UniProt P07550); experiment: beta2AR agonists driving receptor internalization, dose response, cell-based, FAP fluorogen, flow cytometry, cherry pick 1 (AID 588763); type: functional
[15] = molecular target: Nuclear receptor subfamily 0 group B member 1 (Homo sapiens, UniProt P51843); experiment: Luminescence-based cell-based high throughput dose response assay for inhibitors of the orphan nuclear receptor subfamily 0, group B, member 1 (DAX1; NR0B1). [Related pubchem assays (depositor defined):AID504766, AID504790]; type: functional
HEK293 [16] = experiment: cells; type: functional, cell-based; details: Homo sapiens
[17] = THP-1 cell cytotoxicity, dose response, cytotoxicity control for non-replicating M. tuberculosis project (AID 489025); type: functional
[18] = molecular target: Glycogen synthase kinase-3 beta (Homo sapiens, UniProt P49841); experiment: Inhibition of Human GSK-3 beta Activity Measured in Biochemical System Using Microfluidics - 2063-05_Inhibitor_Dose_DryPowder_Activity. [Related pubchem assays (depositor defined):AID2709]
[19] = Vero E6 cell cytotoxicity, dose response, cytotoxicity control for non-replicating M. tuberculosis project, secondary assay (AID 492998); type: functional, VeroE6; details: Vero C1008
[20] = HepG2 cell cytotoxicity, dose response, cytotoxicity control for non-replicating M. tuberculosis project (AID 489018); type: functional; details: Mycobacterium tuberculosis
cells = type: functional
[21] = molecular target: Glycogen synthase kinase-3 alpha (Homo sapiens, UniProt P49840); experiment: Inhibition of Human GSK-3 alpha Activity Measured in Biochemical System Using Microfluidics - 2063-06_Inhibitor_Dose_DryPowder_Activity. [Related pubchem assays (depositor defined):AID2709]
HEK293 [22] = experiment: SAR Analysis of small molecule inhibitors of T-cell specific antigen receptor-induced NF-kB activation in a HEK-293T cell line using a luminescence assay - Set 2. [Related pubchem assays (depositor defined):AID435003, AID435012, AID489026]; type: functional, cell-based; details: Homo sapiens
HEK293 [23] = experiment: cytotoxicity in HEK293T NF-kB-Luc cells, SAR follow-up, cytotoxicity control for NF-kB activator project, cell-based, resazurin fluorescence (AID 493251); type: functional; details: Homo sapiens
Jurkat = experiment: SAR Analysis of small molecule inhibitors of T-cell specific antigen receptor-induced NF-kB activation in a Jurkat cell line using a luminescence assay - Set 2. [Related pubchem assays (depositor defined):AID435003, AID435012, AID465]; type: functional, cell-based; details: Homo sapiens

Chain of Nuclear receptor subfamily 0 group B member 1 (P51843 whole entry): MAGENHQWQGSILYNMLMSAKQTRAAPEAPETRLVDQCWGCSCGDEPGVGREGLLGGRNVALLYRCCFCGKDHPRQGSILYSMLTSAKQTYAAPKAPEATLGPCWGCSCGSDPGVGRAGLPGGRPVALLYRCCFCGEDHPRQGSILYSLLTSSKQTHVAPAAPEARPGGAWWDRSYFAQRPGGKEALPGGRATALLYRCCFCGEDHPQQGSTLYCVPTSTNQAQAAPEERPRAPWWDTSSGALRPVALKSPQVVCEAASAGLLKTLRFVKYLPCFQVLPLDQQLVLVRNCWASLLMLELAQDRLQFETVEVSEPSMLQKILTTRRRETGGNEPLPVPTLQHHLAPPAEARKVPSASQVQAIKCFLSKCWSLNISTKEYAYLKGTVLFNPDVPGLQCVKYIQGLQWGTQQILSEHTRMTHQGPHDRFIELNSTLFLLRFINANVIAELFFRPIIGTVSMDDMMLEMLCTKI
Chain of Type-1 angiotensin II receptor (P30556 whole entry): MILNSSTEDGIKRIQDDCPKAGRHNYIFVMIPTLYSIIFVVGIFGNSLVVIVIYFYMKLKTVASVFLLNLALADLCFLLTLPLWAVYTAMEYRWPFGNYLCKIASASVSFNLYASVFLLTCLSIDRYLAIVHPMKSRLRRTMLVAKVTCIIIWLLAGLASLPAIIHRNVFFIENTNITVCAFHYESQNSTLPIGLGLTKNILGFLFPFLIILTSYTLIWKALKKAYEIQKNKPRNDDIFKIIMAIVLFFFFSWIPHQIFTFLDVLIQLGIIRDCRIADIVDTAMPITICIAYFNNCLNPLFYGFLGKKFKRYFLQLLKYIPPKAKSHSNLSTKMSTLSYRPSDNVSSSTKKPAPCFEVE
Chain of Glycogen synthase kinase-3 beta (P49841 whole entry): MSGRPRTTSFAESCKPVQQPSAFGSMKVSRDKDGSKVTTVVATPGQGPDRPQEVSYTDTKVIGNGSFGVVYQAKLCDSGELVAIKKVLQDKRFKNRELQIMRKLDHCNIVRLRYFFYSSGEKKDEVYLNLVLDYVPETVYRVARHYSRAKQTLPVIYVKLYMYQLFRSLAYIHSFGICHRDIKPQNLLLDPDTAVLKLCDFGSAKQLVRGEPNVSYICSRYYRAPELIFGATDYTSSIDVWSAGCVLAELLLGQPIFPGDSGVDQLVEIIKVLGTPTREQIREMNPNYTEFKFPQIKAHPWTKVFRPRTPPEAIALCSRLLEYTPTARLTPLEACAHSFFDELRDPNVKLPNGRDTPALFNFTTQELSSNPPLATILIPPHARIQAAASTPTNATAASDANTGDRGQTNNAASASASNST
Chain of Glycogen synthase kinase-3 alpha (P49840 whole entry): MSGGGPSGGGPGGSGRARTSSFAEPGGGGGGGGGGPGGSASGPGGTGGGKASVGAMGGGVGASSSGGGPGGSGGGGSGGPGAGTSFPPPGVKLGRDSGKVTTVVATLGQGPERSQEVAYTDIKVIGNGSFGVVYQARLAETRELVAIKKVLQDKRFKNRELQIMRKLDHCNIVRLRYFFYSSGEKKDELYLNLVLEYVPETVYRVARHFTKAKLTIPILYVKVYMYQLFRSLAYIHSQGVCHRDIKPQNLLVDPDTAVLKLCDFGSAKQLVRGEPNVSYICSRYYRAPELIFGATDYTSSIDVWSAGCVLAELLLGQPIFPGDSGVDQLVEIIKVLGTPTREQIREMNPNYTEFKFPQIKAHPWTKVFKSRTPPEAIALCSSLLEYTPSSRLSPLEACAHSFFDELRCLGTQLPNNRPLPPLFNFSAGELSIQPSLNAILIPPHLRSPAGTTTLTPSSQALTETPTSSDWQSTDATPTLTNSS
Chain of Beta-galactosidase (Q8VNN2 whole entry): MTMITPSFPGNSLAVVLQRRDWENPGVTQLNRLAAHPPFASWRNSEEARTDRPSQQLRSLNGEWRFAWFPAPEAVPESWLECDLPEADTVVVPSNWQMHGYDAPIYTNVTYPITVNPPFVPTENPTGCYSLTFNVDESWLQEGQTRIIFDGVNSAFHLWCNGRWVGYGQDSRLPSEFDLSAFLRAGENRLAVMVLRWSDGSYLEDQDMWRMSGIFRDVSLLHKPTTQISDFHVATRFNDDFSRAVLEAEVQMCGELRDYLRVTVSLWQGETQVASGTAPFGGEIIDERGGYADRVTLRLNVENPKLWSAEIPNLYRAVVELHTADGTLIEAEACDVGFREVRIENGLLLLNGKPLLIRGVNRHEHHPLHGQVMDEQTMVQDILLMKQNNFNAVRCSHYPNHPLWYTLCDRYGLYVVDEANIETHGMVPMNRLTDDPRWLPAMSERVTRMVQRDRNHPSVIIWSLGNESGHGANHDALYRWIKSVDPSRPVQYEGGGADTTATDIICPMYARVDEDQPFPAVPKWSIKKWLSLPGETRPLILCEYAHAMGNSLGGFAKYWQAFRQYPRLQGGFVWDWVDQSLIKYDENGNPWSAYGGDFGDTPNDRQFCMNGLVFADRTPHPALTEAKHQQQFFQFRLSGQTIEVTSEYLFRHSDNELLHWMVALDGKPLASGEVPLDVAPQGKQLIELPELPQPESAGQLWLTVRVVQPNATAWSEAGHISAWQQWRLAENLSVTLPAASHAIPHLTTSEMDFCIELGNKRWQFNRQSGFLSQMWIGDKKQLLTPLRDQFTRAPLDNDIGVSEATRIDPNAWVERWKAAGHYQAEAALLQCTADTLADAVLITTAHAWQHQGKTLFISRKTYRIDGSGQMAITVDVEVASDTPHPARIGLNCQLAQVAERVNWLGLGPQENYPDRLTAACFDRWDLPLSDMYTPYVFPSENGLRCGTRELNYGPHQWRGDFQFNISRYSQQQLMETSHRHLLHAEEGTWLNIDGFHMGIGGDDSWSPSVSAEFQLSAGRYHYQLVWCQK
Chain of Beta-2 adrenergic receptor (P07550 whole entry): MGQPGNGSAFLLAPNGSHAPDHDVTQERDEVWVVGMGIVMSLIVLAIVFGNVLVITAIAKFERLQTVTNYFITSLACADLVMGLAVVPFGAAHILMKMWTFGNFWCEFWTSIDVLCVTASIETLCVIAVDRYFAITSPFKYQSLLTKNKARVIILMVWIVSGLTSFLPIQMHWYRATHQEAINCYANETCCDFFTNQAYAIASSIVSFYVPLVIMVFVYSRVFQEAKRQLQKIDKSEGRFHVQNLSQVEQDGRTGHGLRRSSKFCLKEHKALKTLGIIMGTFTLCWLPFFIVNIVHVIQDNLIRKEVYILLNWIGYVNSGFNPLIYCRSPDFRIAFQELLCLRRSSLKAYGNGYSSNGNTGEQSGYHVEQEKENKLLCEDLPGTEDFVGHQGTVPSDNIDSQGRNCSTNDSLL

Cc1c(C#N)c(NC(=O)CCl)n(Cc2ccc(F)cc2)c1C
active: EC50 (BJ [3]) 16.7 µM | EC50 (Protein RecA) 4.23 µM | EC50 [4] 12.1 µM | AC50 [5] 7.16 µM | AC50 [6] 15.2 µM | AC50 (A-375 [7]) > 35 µM | AC50 (A-375 [8]) > 35 µM
inconclusive: EC50 (BJ [1]) 1.88 µM | EC50 (BJ [2]) > 150 µM

O=C(CNc1ccc(F)cc1)c1ccccc1
inactive: EC50 (Beta-galactosidase) > 40 µM
active: AC50 [9] 4.61 µM | AC50 [10] 1.17 µM | AC50 [11] 1.54 µM | AC50 [12] 1.57 µM | IC50 [13] 7.06 µM

CN(CCOc1ccc(-c2ccn(S(=O)(=O)c3cccc4ccccc34)n2)cc1)c1ccccn1
active: EC50 [14] 2.53 µM

c1ccc(N2CCN(c3ccccc3)C2c2cccs2)cc1
inactive: IC50 [15] > 67.5 µM | IC50 (HEK293 [16]) > 67.5 µM

O=C1Nc2cc(C(=O)NCCN3CCCCCC3)ccc2S/C1=C\c1ccccc1
active: CC50 [17] 6.89 µM | AC50 [18] 2.29 µM | CC50 [19] 12.5 µM | AC50 [5] 9.78 µM | CC50 [20] 12.1 µM | IC50 (cells) 37.8 µM | AC50 [21] 63.7 µM

NS(=O)(=O)c1ccc(NC(=O)c2ccc([N+](=O)[O-])o2)cc1
active: IC50 (Jurkat) 17.4 µM
inactive: IC50 (HEK293 [22]) 20.5 µM | IC50 (HEK293 [23]) 71.3 µM

— ChEMBL document CHEMBL1201862, “PubChem BioAssay data set” (2004)
